# Measurements reported in ChEMBL document CHEMBL5528083, “Discovery of a Novel Thienopyrimidine Compound as a Urate Transporter 1 and Glucose Transporter 9 Dual Inhibitor with Improved Efficacy and Favorable Druggability” (J Med Chem, 2024).
# Organism: Mus musculus
# Test: Reduction in serum uric acid level in acute hyperuricemia state Kunming mouse model assessed as SUA level by measuring decrease ratio relative to control
# Assay type: functional
# Set-up: concentration or dose not given beside the values
# Details: not given
row,Structure (SMILES),Activity [%]
1,O=C(O)CSc1nc(Nc2ccc(C3CC3)c3ccccc23)c2ccc(F)cc2n1,90.6
2,O=C(O)C1(Sc2nc3c(c(Nc4ccc(C5CC5)c5ccccc45)n2)CCC3)CCC1,50.3
3,O=C(O)C1(Sc2nc(Nc3ccc(C4CC4)c4ccccc34)c3ccc(F)cc3n2)CCC1,33
4,O=C(O)CCCSc1nc2c(c(Nc3ccc(C4CC4)c4ccccc34)n1)SCC2,62
5,O=C(O)CCCSc1nc(Nc2ccc(C3CC3)c3ccccc23)c2ccccc2n1,64.6
6,CC(Sc1nccc(Nc2ccc(C3CC3)c3ccccc23)n1)C(=O)O (stereo unspecified),88.9
7,CC(C)(Sc1nc2c(c(Nc3ccc(C4CC4)c4ccccc34)n1)CCC2)C(=O)O,92.2
8,CC(Sc1nc(Nc2ccc(C3CC3)c3ccccc23)c2ccc(F)cc2n1)C(=O)O (stereo unspecified),60.7
9,COc1cc2nc(SCCC(=O)O)nc(Nc3ccc(C4CC4)c4ccccc34)c2cc1OC,23.6
10,COc1cc2nc(SC(C)C(=O)O)nc(Nc3ccc(C4CC4)c4ccccc34)c2cc1OC (stereo unspecified),1
11,O=C(O)C1(Sc2nc3c(c(Nc4ccc(C5CC5)c5ccccc45)n2)COC3)CCC1,1.5
12,CC(C)(Sc1nc(Nc2ccc(C3CC3)c3ccccc23)c2sccc2n1)C(=O)O,68.5
13,CC(C)(Sc1nc(Nc2ccc(C3CC3)c3ccccc23)c2ccc(F)cc2n1)C(=O)O,82.4
14,CC(Sc1nc2c(c(Nc3ccc(C4CC4)c4ccccc34)n1)COC2)C(=O)O (stereo unspecified),4.5
15,O=C(O)CCCSc1nc2c(c(Nc3ccc(C4CC4)c4ccccc34)n1)CCC2,22.6
16,CC(Sc1nc(Nc2ccc(C3CC3)c3ccccc23)c2sccc2n1)C(=O)O (stereo unspecified),69.9
17,O=C(O)CSc1nc(Nc2ccc(C3CC3)c3ccccc23)c2ccsc2n1,74.5
18,O=C(O)CCSc1nccc(Nc2ccc(C3CC3)c3ccccc23)n1,24.6
19,O=C(O)CCCSc1nc(Nc2ccc(C3CC3)c3ccccc23)c2ccsc2n1,89.6
20,O=C(O)C1(Sc2nc(Nc3ccc(C4CC4)c4ccccc34)c3ccccc3n2)CCC1,51.6
21,CC(Sc1nc2c(c(Nc3ccc(C4CC4)c4ccccc34)n1)CCC2)C(=O)O (stereo unspecified),52.6
22,CC(C)(Sc1nccc(Nc2ccc(C3CC3)c3ccccc23)n1)C(=O)O,91
23,O=C(O)CCCSc1nc(Nc2ccc(C3CC3)c3ccccc23)c2ccc(F)cc2n1,9.9
24,O=C(O)CCSc1nc(Nc2ccc(C3CC3)c3ccccc23)c2ccsc2n1,92.7
25,O=C(O)CSc1nc2c(c(Nc3ccc(C4CC4)c4ccccc34)n1)CCC2,24.9

row,Structure (SMILES),Activity [%]
1,O=C(O)C1(Sc2nc(Nc3ccc(C4CC4)c4ccccc34)c3ccsc3n2)CCC1,35.8
2,O=C(O)CCCSc1nccc(Nc2ccc(C3CC3)c3ccccc23)n1,92.4
3,CC(C)(Sc1nc(Nc2ccc(C3CC3)c3ccccc23)c2ccccc2n1)C(=O)O,92.2
4,O=C(O)CCSc1nc2c(c(Nc3ccc(C4CC4)c4ccccc34)n1)CCC2,95.7
5,CC(C)(Sc1nc(Nc2ccc(C3CC3)c3ccccc23)c2ccsc2n1)C(=O)O,66.2
6,O=C(O)CSc1nccc(Nc2ccc(C3CC3)c3ccccc23)n1,68.2
7,O=C(O)CCSc1nc(Nc2ccc(C3CC3)c3ccccc23)c2sccc2n1,91.3
8,O=C(O)C1(Sc2nc3c(c(Nc4ccc(C5CC5)c5ccccc45)n2)SCC3)CCC1,3.42
9,O=C(O)C1(Sc2nccc(Nc3ccc(C4CC4)c4ccccc34)n2)CCC1,58.7
10,COc1cc2nc(SCCCC(=O)O)nc(Nc3ccc(C4CC4)c4ccccc34)c2cc1OC,62.3
11,CC(Sc1nc(Nc2ccc(C3CC3)c3ccccc23)c2ccccc2n1)C(=O)O (stereo unspecified),21.5
12,COc1cc2nc(SC(C)(C)C(=O)O)nc(Nc3ccc(C4CC4)c4ccccc34)c2cc1OC,7.8
13,O=C(O)CSc1nc2c(c(Nc3ccc(C4CC4)c4ccccc34)n1)COC2,2.3
14,O=C(O)CSc1nc(Nc2ccc(C3CC3)c3ccccc23)c2ccccc2n1,82.9
15,COc1cc2nc(SC3(C(=O)O)CCC3)nc(Nc3ccc(C4CC4)c4ccccc34)c2cc1OC,89.1
16,O=C(O)CCSc1nc2c(c(Nc3ccc(C4CC4)c4ccccc34)n1)COC2,26.1
17,O=C(O)CCSc1nc(Nc2ccc(C3CC3)c3ccccc23)c2ccc(F)cc2n1,13.5
18,CC(C)(Sc1nc2c(c(Nc3ccc(C4CC4)c4ccccc34)n1)SCC2)C(=O)O,87.5
19,O=C(O)CCSc1nc2c(c(Nc3ccc(C4CC4)c4ccccc34)n1)SCC2,3.54
20,COc1cc2nc(SCC(=O)O)nc(Nc3ccc(C4CC4)c4ccccc34)c2cc1OC,91.3
21,O=C(O)CSc1nc(Nc2ccc(C3CC3)c3ccccc23)c2sccc2n1,1.1
22,O=C(O)CSc1nc2c(c(Nc3ccc(C4CC4)c4ccccc34)n1)SCC2,88.8
23,CC(Sc1nc(Nc2ccc(C3CC3)c3ccccc23)c2ccsc2n1)C(=O)O (stereo unspecified),20
24,O=C(O)CCSc1nc(Nc2ccc(C3CC3)c3ccccc23)c2ccccc2n1,84.7
25,O=C(O)C1(Sc2nc(Nc3ccc(C4CC4)c4ccccc34)c3sccc3n2)CCC1,34.8

# Target: Xanthine dehydrogenase/oxidase (Bos taurus, UniProt P80457)
# Test: Inhibition of bovine XOD using xanthine as substrate assessed as inhibitory ratio at 10 uM by spectrophotometric analysis relative to control
# Details: cattle
# Chain of Xanthine dehydrogenase/oxidase (P80457 whole entry): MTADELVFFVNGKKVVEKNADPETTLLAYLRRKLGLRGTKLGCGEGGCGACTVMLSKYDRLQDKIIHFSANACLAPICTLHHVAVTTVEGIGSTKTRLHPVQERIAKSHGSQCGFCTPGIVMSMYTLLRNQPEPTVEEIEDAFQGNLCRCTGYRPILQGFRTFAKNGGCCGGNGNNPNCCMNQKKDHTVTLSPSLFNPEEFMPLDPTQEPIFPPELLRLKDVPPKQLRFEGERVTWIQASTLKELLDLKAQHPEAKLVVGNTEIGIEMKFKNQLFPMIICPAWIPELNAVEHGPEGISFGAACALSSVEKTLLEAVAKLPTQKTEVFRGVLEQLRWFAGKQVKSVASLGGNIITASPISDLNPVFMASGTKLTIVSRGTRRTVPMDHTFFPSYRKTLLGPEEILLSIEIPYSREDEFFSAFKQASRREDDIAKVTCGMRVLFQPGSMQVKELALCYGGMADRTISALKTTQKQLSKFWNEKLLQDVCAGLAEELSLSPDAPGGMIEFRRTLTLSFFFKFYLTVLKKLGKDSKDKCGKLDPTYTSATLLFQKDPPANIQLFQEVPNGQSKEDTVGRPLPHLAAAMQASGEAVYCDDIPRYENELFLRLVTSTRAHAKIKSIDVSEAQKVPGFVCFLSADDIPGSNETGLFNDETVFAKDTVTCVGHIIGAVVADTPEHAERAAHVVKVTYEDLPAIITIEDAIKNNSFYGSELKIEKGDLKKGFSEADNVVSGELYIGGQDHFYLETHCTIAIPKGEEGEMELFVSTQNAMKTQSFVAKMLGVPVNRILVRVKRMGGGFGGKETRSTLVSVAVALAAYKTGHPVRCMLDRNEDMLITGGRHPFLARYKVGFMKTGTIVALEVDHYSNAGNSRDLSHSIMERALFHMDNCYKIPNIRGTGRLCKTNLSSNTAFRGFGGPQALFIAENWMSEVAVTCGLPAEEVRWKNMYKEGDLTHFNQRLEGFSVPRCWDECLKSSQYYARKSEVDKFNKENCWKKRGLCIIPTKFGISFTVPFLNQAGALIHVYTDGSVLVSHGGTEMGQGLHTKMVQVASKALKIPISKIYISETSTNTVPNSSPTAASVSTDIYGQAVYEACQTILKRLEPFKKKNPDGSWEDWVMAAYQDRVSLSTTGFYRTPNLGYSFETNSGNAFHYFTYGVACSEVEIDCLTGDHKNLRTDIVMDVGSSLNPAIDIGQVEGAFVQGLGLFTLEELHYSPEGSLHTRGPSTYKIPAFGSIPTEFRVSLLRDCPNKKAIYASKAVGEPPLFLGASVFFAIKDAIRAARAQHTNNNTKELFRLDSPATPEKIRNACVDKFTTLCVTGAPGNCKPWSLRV
row,Structure (SMILES),inhibition at 10 µM [%]
1,Cc1nc(-c2ccc(OCC(C)C)c(C#N)c2)sc1C(=O)O [FEBUXOSTAT],102

# Organism: Mus musculus
# Test: Reduction in serum uric acid level in acute hyperuricemia state Kunming mouse model assessed as SUA level
# Assay type: functional
# Details: not given
row,Structure (SMILES),Activity [µM]
1,O=C(O)CSc1nc(Nc2ccc(C3CC3)c3ccccc23)c2ccc(F)cc2n1,210.4
2,O=C(O)C1(Sc2nc3c(c(Nc4ccc(C5CC5)c5ccccc45)n2)CCC3)CCC1,614.6
3,O=C(O)C1(Sc2nc(Nc3ccc(C4CC4)c4ccccc34)c3ccc(F)cc3n2)CCC1,734.6
4,O=C(O)CCCSc1nc2c(c(Nc3ccc(C4CC4)c4ccccc34)n1)SCC2,514.4
5,O=C(O)CCCSc1nc(Nc2ccc(C3CC3)c3ccccc23)c2ccccc2n1,478.2
6,CC(Sc1nccc(Nc2ccc(C3CC3)c3ccccc23)n1)C(=O)O (stereo unspecified),234
7,CC(C)(Sc1nc2c(c(Nc3ccc(C4CC4)c4ccccc34)n1)CCC2)C(=O)O,256.6
8,CC(Sc1nc(Nc2ccc(C3CC3)c3ccccc23)c2ccc(F)cc2n1)C(=O)O (stereo unspecified),482.4
9,COc1cc2nc(SCCC(=O)O)nc(Nc3ccc(C4CC4)c4ccccc34)c2cc1OC,828
10,COc1cc2nc(SC(C)C(=O)O)nc(Nc3ccc(C4CC4)c4ccccc34)c2cc1OC (stereo unspecified),1039.4
11,O=C(O)C1(Sc2nc3c(c(Nc4ccc(C5CC5)c5ccccc45)n2)COC3)CCC1,1021.4
12,CC(C)(Sc1nc(Nc2ccc(C3CC3)c3ccccc23)c2sccc2n1)C(=O)O,425.4
13,CC(C)(Sc1nc(Nc2ccc(C3CC3)c3ccccc23)c2ccc(F)cc2n1)C(=O)O,284.8
14,CC(Sc1nc2c(c(Nc3ccc(C4CC4)c4ccccc34)n1)COC2)C(=O)O (stereo unspecified),994.41
15,O=C(O)CCCSc1nc2c(c(Nc3ccc(C4CC4)c4ccccc34)n1)CCC2,851
16,CC(Sc1nc(Nc2ccc(C3CC3)c3ccccc23)c2sccc2n1)C(=O)O (stereo unspecified),412
17,O=C(O)CSc1nc(Nc2ccc(C3CC3)c3ccccc23)c2ccsc2n1,368.2
18,O=C(O)CCSc1nccc(Nc2ccc(C3CC3)c3ccccc23)n1,880.2
19,O=C(O)CCCSc1nc(Nc2ccc(C3CC3)c3ccccc23)c2ccsc2n1,225
20,CC(C)(Sc1nc2c(c(Nc3ccc(C4CC4)c4ccccc34)n1)COC2)C(=O)O,1040
21,O=C(O)C1(Sc2nc(Nc3ccc(C4CC4)c4ccccc34)c3ccccc3n2)CCC1,608.8
22,CC(Sc1nc2c(c(Nc3ccc(C4CC4)c4ccccc34)n1)CCC2)C(=O)O (stereo unspecified),594.6
23,CC(C)(Sc1nccc(Nc2ccc(C3CC3)c3ccccc23)n1)C(=O)O,212.6
24,O=C(O)CCCSc1nc(Nc2ccc(C3CC3)c3ccccc23)c2ccc(F)cc2n1,944.6
25,O=C(O)CCSc1nc(Nc2ccc(C3CC3)c3ccccc23)c2ccsc2n1,196.4
26,O=C(O)CSc1nc2c(c(Nc3ccc(C4CC4)c4ccccc34)n1)CCC2,831.4
27,O=C(O)C1(Sc2nc(Nc3ccc(C4CC4)c4ccccc34)c3ccsc3n2)CCC1,734.6

row,Structure (SMILES),Activity [µM]
1,O=C(O)CCCSc1nccc(Nc2ccc(C3CC3)c3ccccc23)n1,198.2
2,CC(C)(Sc1nc(Nc2ccc(C3CC3)c3ccccc23)c2ccccc2n1)C(=O)O,200.8
3,O=C(O)CCCSc1nc2c(c(Nc3ccc(C4CC4)c4ccccc34)n1)COC2,1120.8
4,O=C(O)CCSc1nc2c(c(Nc3ccc(C4CC4)c4ccccc34)n1)CCC2,226.6
5,CC(C)(Sc1nc(Nc2ccc(C3CC3)c3ccccc23)c2ccsc2n1)C(=O)O,447.2
6,O=C(O)CSc1nccc(Nc2ccc(C3CC3)c3ccccc23)n1,442.4
7,O=C(O)CCSc1nc(Nc2ccc(C3CC3)c3ccccc23)c2sccc2n1,209.6
8,CC(Sc1nc2c(c(Nc3ccc(C4CC4)c4ccccc34)n1)SCC2)C(=O)O (stereo unspecified),1114.8
9,O=C(O)C1(Sc2nc3c(c(Nc4ccc(C5CC5)c5ccccc45)n2)SCC3)CCC1,1014.8
10,O=C(O)C1(Sc2nccc(Nc3ccc(C4CC4)c4ccccc34)n2)CCC1,537.8
11,COc1cc2nc(SCCCC(=O)O)nc(Nc3ccc(C4CC4)c4ccccc34)c2cc1OC,465.4
12,CC(Sc1nc(Nc2ccc(C3CC3)c3ccccc23)c2ccccc2n1)C(=O)O (stereo unspecified),911.8
13,COc1cc2nc(SC(C)(C)C(=O)O)nc(Nc3ccc(C4CC4)c4ccccc34)c2cc1OC,976.2
14,O=C(O)CSc1nc2c(c(Nc3ccc(C4CC4)c4ccccc34)n1)COC2,1014.4
15,O=C(O)CSc1nc(Nc2ccc(C3CC3)c3ccccc23)c2ccccc2n1,294.2
16,COc1cc2nc(SC3(C(=O)O)CCC3)nc(Nc3ccc(C4CC4)c4ccccc34)c2cc1OC,214.4
17,O=C(O)CCSc1nc2c(c(Nc3ccc(C4CC4)c4ccccc34)n1)COC2,797.6
18,O=C(O)CCSc1nc(Nc2ccc(C3CC3)c3ccccc23)c2ccc(F)cc2n1,912.4
19,CC(C)(Sc1nc2c(c(Nc3ccc(C4CC4)c4ccccc34)n1)SCC2)C(=O)O,297.2
20,O=C(O)CCSc1nc2c(c(Nc3ccc(C4CC4)c4ccccc34)n1)SCC2,1013.8
21,COc1cc2nc(SCC(=O)O)nc(Nc3ccc(C4CC4)c4ccccc34)c2cc1OC,193.4
22,O=C(O)CSc1nc(Nc2ccc(C3CC3)c3ccccc23)c2sccc2n1,1062.6
23,O=C(O)CSc1nc2c(c(Nc3ccc(C4CC4)c4ccccc34)n1)SCC2,285.8
24,CC(Sc1nc(Nc2ccc(C3CC3)c3ccccc23)c2ccsc2n1)C(=O)O (stereo unspecified),884
25,O=C(O)CCSc1nc(Nc2ccc(C3CC3)c3ccccc23)c2ccccc2n1,276.2
26,O=C(O)C1(Sc2nc(Nc3ccc(C4CC4)c4ccccc34)c3sccc3n2)CCC1,744

# Target: T1, Solute carrier family 22 member 12 (Homo sapiens, UniProt Q96S37)
# T1 sequence (Q96S37 whole entry): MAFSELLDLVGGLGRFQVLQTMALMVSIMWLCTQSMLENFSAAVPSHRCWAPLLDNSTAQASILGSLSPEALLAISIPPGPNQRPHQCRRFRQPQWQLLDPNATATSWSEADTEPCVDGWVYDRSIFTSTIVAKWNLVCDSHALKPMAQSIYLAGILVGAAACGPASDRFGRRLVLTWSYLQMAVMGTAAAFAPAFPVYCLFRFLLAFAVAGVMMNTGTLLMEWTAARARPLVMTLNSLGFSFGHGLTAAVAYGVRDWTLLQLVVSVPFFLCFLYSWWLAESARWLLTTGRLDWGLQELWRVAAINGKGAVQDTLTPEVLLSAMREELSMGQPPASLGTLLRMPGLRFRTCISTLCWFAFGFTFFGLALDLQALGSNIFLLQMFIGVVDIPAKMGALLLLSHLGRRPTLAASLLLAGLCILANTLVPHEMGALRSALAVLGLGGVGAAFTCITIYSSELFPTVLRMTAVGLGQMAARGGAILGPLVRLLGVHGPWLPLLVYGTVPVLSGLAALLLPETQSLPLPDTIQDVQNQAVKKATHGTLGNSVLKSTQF
# Test: Inhibition of human URAT1 expressed in HEK293T cells using 14C- uric acid assessed as uric acid absorption by measuring intracellular liquid radiation value by liquid scintillation counting analysis
# Assay type: cell-based
# Details: not given
row,Structure (SMILES),IC50 [µM]
1,CC(C)(Sc1nc2c(c(Nc3ccc(C4CC4)c4ccccc34)n1)CCC2)C(=O)O,3.96
2,CC(C)(Sc1nccc(Nc2ccc(C3CC3)c3ccccc23)n1)C(=O)O,2.51
3,O=C(O)CCCSc1nccc(Nc2ccc(C3CC3)c3ccccc23)n1,4.73
4,CC(C)(Sc1nc(Nc2ccc(C3CC3)c3ccccc23)c2ccccc2n1)C(=O)O,4.35
5,O=C(O)CCSc1nc2c(c(Nc3ccc(C4CC4)c4ccccc34)n1)CCC2,3.75
6,O=C(O)CCSc1nc(Nc2ccc(C3CC3)c3ccccc23)c2sccc2n1,2.75
7,COc1cc2nc(SCC(=O)O)nc(Nc3ccc(C4CC4)c4ccccc34)c2cc1OC,4.86
